Literature values, collected in PMC11881559 (Antimicrobial Agents and Chemotherapy, 2025).

How the values were obtained:
[1] = tested on: Delta variant of the novel coronavirus; conditions: K18-hACE2 mice infected with Delta variant, 300 mg/kg/day; cited from earlier work
[2] = tested on: SARS-CoV-2 variants, including the wild-type, Alpha, Beta, Delta, and Omicron strains; conditions: cited from earlier work

O=C(NC1CCCC1)C(=O)[C@H](C[C@@H]1CCNC1=O)NC(=O)[C@@H]1[C@H]2CCC[C@H]2CN1C(=O)[C@@H](NC(=O)C(F)(F)F)C1CCCCC1 [RAY1216, leritrelvir]
lung viral titers and virus-induced pathology [1]: significantly decreased lung viral titers and reduced virus-induced pathology | inhibition of SARS-CoV-2 variants in vitro [2]: clearly inhibited
